Laboratory results published in paper PMC12508063, “Chloroindazole based estrogen receptor β ligands with favorable pharmacokinetics promote functional remyelination and visual recovery” (Scientific Reports, 2025).

Columns and labels:
[1] = test system: Human iPSC-derived OPCs (Tempo's iOligo); assay: Differentiation of human iPSC-derived OPCs (Tempo iOligo), MBP; assay type: cell-based; settings: human OLs, 10 nM, 18 days
From the text: Mouse and Human primary cell cultures: Primary OPC/OL culture were isolated from the cortices of postnatal day 0–1 C57BL/6J mice of both sexes, using established protocols[11],[20],[21]. Mouse OPC and Neuronal Co-cultures: Primary neuronal cultures were established in Neurobasal medium with B27 and plated on poly-L-lysine-coated coverslips. After 12 days, OPCs were isolated, counted, and added to neuronal cultures and media was replaced with neuronal and proliferation media for 3 days, then switched to maturation media that maintained both neurons and OLs. Human iPSC-derived OPCs (Tempo’s iOligo™) were expanded, cryopreserved, and later plated on Matrigel-coated coverslips. After 3 days in growth medium, cells were treated for 3 weeks with T3 containing maturation medium. Differentiation into myelin-producing OLs was assessed using O4 (OL surface marker on pre-OLs) and myelin basic protein (MBP) immunohistochemistry. In all conditions compounds or vehicle were added to culture during differentiation for either 5 days (mouse) or 18 days (human). […]
Tempo’s iOligo (OPC) cells form branched bipolar and tripolar structures when cultured as a monolayer and express OL markers, including O4, NG2, and CNPase. […] After plating human OPCs and allowing two days of growth in expansion media, the culture medium was switched to T3 + maturation medium and evaluated for MBP expression (Fig. 8i). […]

EAE mice retina = assay: Retina IHC in EAE; assay type: in vivo, mouse
From the text: Animal Perfusions, tissue preparation, and IHC: Mice were deeply anesthetized and euthanized with isoflurane and intracardially perfused with ice‐cold PBS followed by 10% formalin in PBS (Fisher Scientific, Hampton, NH). Eyes, optic nerves, and brain were collected and processed for IHC as previously described[23],[28]. Antibody details are listed in Supplementary Table S6.
Imaging and Quantification: Retina, optic nerve, and brain sections were imaged using an Olympus BX61 spinning disk confocal microscope with 10× and 40× objectives[23],[28]. Z-stack images were captured and processed using Slidebook 6 and cellSense software. Immunofluorescence intensity and cell counts were quantified using NIH ImageJ, and statistical analysis was performed with GraphPad Prism.
RGC degeneration and pronounced GFAP immunoreactivity is evident in both MS and EAE[23],[28],[35],[36]. To quantify the number of RGCs, neuronal nuclear marker (NeuN) was used. […]
Imaging and Quantification: Retina, optic nerve, and brain sections were imaged using an Olympus BX61 spinning disk confocal microscope equipped with 10x and 40x Super Apochromat objectives (Olympus America Inc., Cypress, CA) connected to a camera (Hamamatsu Orca‐R2). […] Immunofluorescence intensity and cell numbers were assessed with NIH ImageJ software (v1. 50i http://rsb.info.nih.gov/ij/) and quantified. […]

[2] = plasma
CYP2C19 = CYP2C19 (Homo sapiens, UniProt P33261); settings: 10 µM
Chain of CYP2C19 (P33261 whole entry): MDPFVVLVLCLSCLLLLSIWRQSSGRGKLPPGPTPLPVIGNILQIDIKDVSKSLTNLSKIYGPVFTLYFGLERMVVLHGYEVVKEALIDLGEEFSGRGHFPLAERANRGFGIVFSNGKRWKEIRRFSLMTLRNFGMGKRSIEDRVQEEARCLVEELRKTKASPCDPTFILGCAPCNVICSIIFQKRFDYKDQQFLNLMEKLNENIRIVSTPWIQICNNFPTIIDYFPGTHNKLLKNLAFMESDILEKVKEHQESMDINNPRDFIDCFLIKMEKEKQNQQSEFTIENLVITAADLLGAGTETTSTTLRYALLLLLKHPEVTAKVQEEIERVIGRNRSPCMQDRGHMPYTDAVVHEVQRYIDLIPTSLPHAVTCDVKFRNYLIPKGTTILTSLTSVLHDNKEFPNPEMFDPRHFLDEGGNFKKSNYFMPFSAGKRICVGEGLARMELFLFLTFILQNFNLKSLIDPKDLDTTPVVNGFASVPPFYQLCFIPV

[3] = microsomes

Cc1cc(O)ccc1-n1nc2ccc(O)cc2c1Cl [Compound K102, IndCl-o-Me]
MBP levels vs vehicle control [1]: significantly increased

Oc1ccc(-n2nc3ccc(O)cc3c2Cl)c(O)c1 [Compound K110, IndCl-o-OH]
GFAP, mean value (EAE mice retina): 6.695 | NeuN (RGCs), mean value (EAE mice retina): 6.167 | Protein Binding (% Bound) Human [2]: 93.27% | CYP Inhibition Percentage CYP2C19 (CYP2C19): 27.89% | Liver Microsome Stability (Mouse) CLint [3]: 35.28 µL/min/mg protein | Liver Microsome Stability (Mouse) t1/2 [3]: 20.06 min | Liver Microsome Stability (Mouse) % Remaining (30 min) ([3]; 0.5 h): 35.72%
